Data taken from patent US20210261539A1, “COMPOUND HAVING BET INHIBITORY ACTIVITY AND PREPARATION METHOD AND USE THEREFOR” (Shanghai Haihe Pharmaceutical Co., Ltd., priority 2018, published 2021).

Assays:
BRD4 BD1 = molecular target: T1, BRD4 BD1 (Homo sapiens, UniProt O60885); experiment: HTRF in vitro enzyme activity assay, inhibition of BRD4 BD1 binding to acetylated H4 peptide; conditions: IC50 values of the compounds against BRD4 BD1 binding; class symbols A/B/C
T1 construct: Protein BRD4 BD1 used in the assay was purchased from Active Motif (cat. 31380); purchased Active Motif 31380
Procedure, shortened: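 Recombinant human BRD4 BD1 (30 nM final) incubated with compound and biotinylated tetra-acetylated H4(1-21) peptide, 30 min at 37 °C; 5-point 1:5 dilution series, 0.1% DMSO final. HTRF read after 3 h at RT with SA-XL665 and Eu(K)-labelled antibody; IC50 derived.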

[1] = test system: human NMC-derived xenograft; conditions: human NMC-derived xenograft mouse model; cited from earlier work

IC50 (BRD4 BD1)	Structure (SMILES)	tumor squamous differentiation and growth [1]
100 to 1000 nM	C[C@H]1Oc2cc(N3C(=O)c4cc(F)ccc4C3c3cccnc3)ncc2N(C)C1=O (stereo partly drawn) [Example A117, (2R)-7-(5-fluoro-3-oxo-1-(pyridin-3-yl)isoindolin-2-yl)-2,4-dimethyl-2H-pyrido[4,3-b][1,4]oxazin-3(4H)-one]	–
100 to 1000 nM	C[C@H]1Oc2nc(N3C(=O)c4cc(F)ccc4C3c3cccnc3)c(F)cc2N(C)C1=O (stereo partly drawn) [Example A118, (3R)-7-fluoro-6-(5-fluoro-3-oxo-1-(pyridin-3-yl)isoindolin-2-yl)-1,3-dimethyl-1H-pyrido[2,3-B][1,4]oxazin-2(3H)-one]	–

More lines, now with the values behind:

Structure (SMILES)	IC50 (BRD4 BD1)	tumor squamous differentiation and growth [1]
C[C@@H]1C(=O)N(C)c2cnc(N3C(=O)c4c(cccc4C(C)(C)O)C3c3ccc(F)cc3)nc2N1C1CC1 (stereo partly drawn) [Example A94-P4, (7R)-8-cyclopropyl-2-(3-oxo-1-(4-fluorophenyl)-4-(2-hydroxyprop-2-yl)isoindolin-2-yl)-5,7-dimethyl-7,8-dihydropteridin-6(5H)-one]	≤ 10 nM	–
C[C@@H]1C(=O)N(C)c2cnc(N3C(=O)c4cc(F)ccc4C3c3cccnc3)nc2N1C1CC1 (stereo partly drawn) [Example A95-P4, (7R)-8-cyclopropyl-2-(5-fluoro-3-oxo-1-(pyridin-3-yl)isoindolin-2-yl)-5,7 dimethyl-7,8-dihydropteridin-6(5H)-one]	≤ 10 nM	–
C[C@@H]1C(=O)N(C)c2cnc(N3C(=O)c4c(cccc4S(C)(=O)=O)C3c3cccnc3)nc2N1C (stereo partly drawn) [Example A103-P1, (7R)-5,7,8-trimethyl-2-(4-(methylsulfonyl)-3-oxo-1-(pyridin-3-yl)isoindolin-2-yl)-7,8-dihydropteridin-6(5H)-one]	≤ 10 nM	–
C[C@@H]1C(=O)N(C)c2cnc(N3C(=O)c4c(cccc4S(C)(=O)=O)C3(O)c3cccnc3)nc2N1C (stereo partly drawn) [Example A104-P3, (7R)-2-(1-hydroxy-4-(methylsulfonyl)-3-oxo-1-(pyridin-3-yl)isoindolin-2-yl)-5,7,8-trimethyl-7,8-dihydropteridin-6(5H)-one]	≤ 10 nM	–
CCN1C(=O)[C@@H](C)Oc2nc(N3C(=O)c4ccccc4C3c3cccnc3)ccc21 (stereo partly drawn) [Example A108-P3, (R)-1-ethyl-3-methyl-6-(1-oxo-3-(pyridin-3-yl)isoindolin-2-yl)-1H-pyrido[2,3-B][1,4]oxazin-2(3H)-one]	10 to 100 nM	–
CCN1C(=O)[C@@H](C)Oc2nc(N3C(=O)c4ccccc4C3c3ccc(Cl)cc3)ccc21 (stereo partly drawn) [Example A109-P3, (R)-6-(1-(4-chlorophenyl)-3-oxoisoindolin-2-yl)-1-ethyl-3-methyl-1H-pyrido[2,3-B][1,4]oxazin-2-(3H)-one]	10 to 100 nM	–
Cc1ccc(C2c3ccccc3C(=O)N2c2nc3c(cc2F)N(C)C(=O)[C@@H](C)O3)cn1 (stereo partly drawn) [Example A114-P3, (R)-7-fluoro-1,3-dimethyl-6-(1-(6-methylpyridin-3-yl)-3-oxoisoindolin-2-yl)-1H-pyrido[2,3-b][1,4]oxazin-2(3H)-one]	100 to 1000 nM	–
C[C@H]1Oc2nc(N3C(=O)c4cc(F)ccc4C3c3cccnc3)ncc2N(C)C1=O (stereo partly drawn) [Example A116-P3, (7R)-2-(5-fluoro-3-oxo-1-(pyridin-3-yl)isoindolin-2-yl)-5,7-dimethyl-5H-pyrimido[4,5-B][1,4]oxazin-6(7H)-one]	100 to 1000 nM	–
Cc1sc2c(c1C)C(c1ccc(Cl)cc1)=N[C@@H](CC(=O)OC(C)(C)C)c1nnc(C)n1-2 [JQ1]	–	inhibited tumor squamous differentiation and growth and caused regression
